# Assay results: patent US20130065227A1, “METHODS OF INCREASING MACROPINOCYTOSIS IN CANCER CELLS” (priority 2010, published 2013)
# {Fluor} = fluorophore: 5-carboxyfluorescein (FAM) or Alexa Fluor 488
# Assays:
# [1] = test system: MCF10A; assay: Uptake of AS1411 by macropinocytosis (MP); type: cell-based, human; settings: Non-cancer, breast epithelial
# From the text: (§1) It has recently been discovered that AS1411 can stimulate macropinocytosis (MP) in cancer cells and this finding was verified by several different methods and in multiple cancer cell lines (Table 1).
# [2] = test system: DU145 cells; assay: Cell death / cytotoxicity; type: cell-based
# [3] = test system: SK-N-DZ; assay: Stimulation of macropinocytosis (dextran uptake); type: cell-based; settings: Cancer, neuroblastoma
# From the text: as §1
# [4] = test system: A549; assay: Stimulation of macropinocytosis (dextran uptake); type: cell-based; settings: Cancer, non-small cell lung
# From the text: as §1
# [5] = test system: BEAS2B; assay: Stimulation of macropinocytosis (dextran uptake); type: cell-based; settings: Non-cancer, lung epithelial
# From the text: as §1
# [6] = test system: RWPE1; assay: Stimulation of macropinocytosis (dextran uptake); type: cell-based; settings: Non-cancer, prostate epithelial
# From the text: as §1
# [7] = test system: Cells; assay: Antiproliferative MTT assay (FIG. 7); type: cell-based
# Protocol: FIG. 7 are graphs showing the results of comparative experiments. (Panel A) Cells were plated in 96-well plates at low density (1,000 cells per well) and incubated 18 hrs at 37° C. to allow adherence. Cells were treated by addition of different concentrations of AS1411 (obtained from Antisoma), AS1411 (obtained from Invitrogen), tAS1411, FL-AS1411, CRO, or tCRO directly to the medium, and proliferation was measured using a 3-(4,5-dimethylthiazol-2-yl)-2,5-diphenyltetrazolium bromide assay as described previously (Bates et al., 1999, J. Biol. Chem., 274:26369-77). Points represent mean of triplicate samples with SE. (Panel B) 10 μM FL-AS1411 or 10 μM FL-CRO were added to DU145 cells plated on 6-well plates. After incubation at 37° C. for 2 hrs, cells were washed twice with ice-cold PBS and harvested by trypsin treatment. Some cells were washed twice with ice-cold PBS containing dextran sulfate ([…]) or trypan blue ([…], pH 4.4). Cells were resuspended in ice-cold PBS and immediately analyzed by flow cytometry.
# Oligodeoxynucleotides were purchased from Invitrogen (Carlsbad, Calif.). […]
Substance,Update by MP? [1],timing of cell death ([2]; 40 μM AS1411),"cytotoxicity at higher concentrations ([2]; concentrations higher than 40 μM, early time point (2 h))",Stimulate MP? [3],Stimulate MP? [4],Stimulate MP? [5],Stimulate MP? [6],antiproliferative activity [7]
5′-d(GGTGGTGGTGGTTGTGGTGGTGGTGG) [AS1411],Low,within hours,apparent cytotoxicity,Yes,Yes,No,No,–
"5′-Fluor-d(TTTCCTCCTCCTCCTTCTCCTCCTCCTCC) (DNA TTTCCTCCTCCTCCTTCTCCTCCTCCTCC; DNA, 5' {Fluor}, backbone and methylation of C not given here) [FL-CRO, reference compound]",–,–,–,–,–,–,–,no antiproliferative activity
